Data taken from publication PMC9035832, “Synthesis and Evaluation of a Non-Peptide Small-Molecule Drug Conjugate Targeting Integrin αVβ3” (Frontiers in Chemistry, 2022).
Where two headings read alike, the source gives them in different places.

How the values were obtained:
[1] = target: T1, integrin αVβ3 (Homo sapiens, UniProt P05106+P06756); assay: ELISA-like competitive integrin binding assay (vitronectin-coated plates)
T1 construct: using the isolated extracellular domain of integrins αVβ3 and α5β1; purchased Sino Biological
Protocol: (§1) An ELISA-like assay using the isolated extracellular domain of integrins αVβ3 and α5β1 was performed in flat-bottom 96-well immuno plates (Brand) to determine the activities of the synthesized compounds. All wells were coated overnight with the native integrin ligand vitronectin or fibronectin (1) (Table 1) in a carbonate buffer (150 µl/well), followed by washing of each well with the PBS-T buffer (3 × 200 µl/well) (Table 1) and blocking for 1 h with the TS-B buffer (150 µl/well) at RT. […] The protein-coated assay plate was washed with the PBS-T buffer (3 × 200 µl/well), and 50 µl of the dilution series was transferred to the assay plate wells B–G. The TS-B buffer was filled into row A (100 µl/well) as the negative control and row H (50 µl/well) as the positive control. Afterward, the corresponding human integrin (2, 50 µl/well) (Table 1) in the TS-B buffer was added to row B–H and incubated for 1 h at RT. After washing the assay plate with the PBS-T buffer (3 × 200 µl/well), the primary antibody (3, 100 µl/well) (Table 1) was transferred to each well and incubated for 1 h at RT. Then the plate was washed with the PBS-T buffer (3 × 200 µl/well), treated with the secondary antibody (4, 100 µl/well) (Table 1), and incubated for 1 h at RT. The plate was washed with the PBS-T buffer (3 × 200 µl/well), and SeramunBlau® fast2 (Seramun Diagnostics GmbH, 50 µl/well) was added to each well. Staining was stopped with 3 M aq. […] The absorbance was measured with a plate reader at 450 nm and corrected by subtraction of the absorbance at 620 nm. Afterward, the resulting values were plotted and analyzed using OriginPro® 2020b where the inflection point of a DoseResp fit describes the IC50 value. All compounds were tested in duplicates or triplicates for both integrins.
(§2) The affinities (Table 4) of the RGD mimetics (Table 3) toward the integrins αVβ3 and α5β1 were determined in a competitive enzyme-linked immunosorbent assay (ELISA) using recombinant human integrins with the native ligands vitronectin and fibronectin as described in the literature ([Mas-Moruno et al., 2016b]). […]
(§3) Table S1: Proteins and buffers applied in the ELISA-like assay.
(§4) An ELISA-like assay using the isolated extracellular domain of integrins αVβ3 and α5β1 was performed in flat-bottom 96-well immuno plates (Brand) to determine the activities of the synthesised compounds.
(§5) All wells were coated overnight with the native integrin ligand vitronectin or fibronectin (Table S1, (1)) in carbonate buffer (150 µL/well), followed by washing of each well with PBS-T buffer (3×200 µL/well) (Table S1) and blocking for 1 h with TS-B buffer (150 µL/well) at RT. A dilution […]
(§6) 1:10 dilution) in TS-B buffer. The protein-coated assay plate was washed with PBS-T buffer (3×200 µL/well) and 50 µL of the dilution series was transferred to the assay plate wells B-G. TS-B buffer was filled into row A (100 µL/well) as negative control and row H (50 µL/well) as positive control. Afterwards, the corresponding human integrin (2, 50 µL/well)) (Table S1) in TS-B buffer was added to row B-H and incubated for 1 h at RT. After washing the assay plate with PBS-T buffer (3×200 µL/well) the primary antibody (3, 100 µL/well) (Table S1) was transferred to each well and incubated for 1 h at RT. Then the plate was washed with PBS-T buffer (3×200 µL/well), treated with […]

[2] = target: T2, integrin α5β1 (Homo sapiens, UniProt P05556+P08648); assay: ELISA-like competitive integrin binding assay (fibronectin-coated plates)
T2 construct: using the isolated extracellular domain of integrins αVβ3 and α5β1; purchased R&D
Protocol: as §1, §2, §3, §4, §5, §6

[3] = isolated extracellular domain of human integrin αVβ3, ligand vitronectin, Cilengitide as reference on all plates
[4] = isolated extracellular domain of human integrin α5β1, ligand fibronectin, Cilengitide as reference on all plates

SMILES	IC50 [1] [µM]	IC50 [2] [µM]	IC50 [1, 3] [µM]	IC50 [2, 4] [µM]
O=C(N[C@@H](Cc1ccc(OCCCNC2=NCCN2)cc1)C(=O)O)c1ccccc1 [5aa]	0.0385 ± 0.0243	0.0252 ± 0.00735	–	–
O=C(NC(Cc1ccc(OCCCNc2ncccn2)cc1)C(=O)O)c1ccccc1 (stereo not shown) [5ab]	–	–	1.31	> 10
O=C(N[C@@H](Cc1ccc(OCCCNC2=NCCCN2)cc1)C(=O)O)c1ccccc1 [5ac]	0.0181 ± 0.00368	0.0174 ± 0.00334	–	–
O=C(N[C@@H](Cc1ccc(OCCCNC2=NCCN2)cc1)C(=O)O)c1ccc(O)cc1 [5ba]	–	–	0.0388 ± 0.0192	0.0434 ± 0.0244
O=C(N[C@@H](Cc1ccc(OCCCNc2ncccn2)cc1)C(=O)O)c1ccc(O)cc1 [5bb]	6.53	> 10	–	–
O=C(NC(Cc1ccc(OCCCNC2=NCCCN2)cc1)C(=O)O)c1ccc(O)cc1 (stereo not shown) [5bc]	–	–	0.0704 ± 0.00057	0.0185 ± 0.00365
O=C(N[C@@H](Cc1ccc(OCCCNC2=NCCN2)cc1)C(=O)O)c1cccc(O)c1 [5ca]	0.00929 ± 0.00577	0.0305 ± 0.0207	–	–
O=C(N[C@@H](Cc1ccc(OCCCNc2ncccn2)cc1)C(=O)O)c1cccc(O)c1 [5cb]	7.7	> 10	–	–
O=C(N[C@@H](Cc1ccc(OCCCNC2=NCCCN2)cc1)C(=O)O)c1cccc(O)c1 [5cc]	0.452 ± 0.12	0.0328 ± 0.0112	–	–
O=C(N[C@@H](Cc1ccc(OCCCNC2=NCCN2)cc1)C(=O)O)OCc1ccccc1 [5da]	0.00132 ± 0.00011	0.162 ± 0.036	–	–
O=C(N[C@@H](Cc1ccc(OCCCNc2ncccn2)cc1)C(=O)O)OCc1ccccc1 [5db]	0.237 ± 0.0697	> 10	–	–
O=C(N[C@@H](Cc1ccc(OCCCNC2=NCCCN2)cc1)C(=O)O)OCc1ccccc1 [5dc]	0.00468 ± 0.00447	0.0716 ± 0.0161	–	–
O=C(N[C@@H](Cc1ccc(OCCCCNC2=NCCN2)cc1)C(=O)O)c1ccccc1 [6aa]	0.0258 ± 0.00677	0.175 ± 0.0737	–	–
O=C(N[C@@H](Cc1ccc(OCCCCNc2ncccn2)cc1)C(=O)O)c1ccccc1 [6ab]	6.17	> 10	–	–
O=C(NC(Cc1ccc(OCCCCNC2=NCCCN2)cc1)C(=O)O)c1ccccc1 (stereo not shown) [6ac]	–	–	0.0328 ± 0.0176	0.0175 ± 0.00676
O=C(N[C@@H](Cc1ccc(OCCCCNC2=NCCN2)cc1)C(=O)O)c1ccc(O)cc1 [6ba]	1.9 ± 0.175	0.0352 ± 0.0184	–	–
O=C(NC(Cc1ccc(OCCCCNc2ncccn2)cc1)C(=O)O)c1ccc(O)cc1 (stereo not shown) [6bb]	–	–	5.29	> 10
O=C(N[C@@H](Cc1ccc(OCCCCNC2=NCCCN2)cc1)C(=O)O)c1ccc(O)cc1 [6bc]	0.0387 ± 0.0155	0.511 ± 0.183	–	–
O=C(N[C@@H](Cc1ccc(OCCCCNC2=NCCN2)cc1)C(=O)O)c1cccc(O)c1 [6ca]	–	–	0.00101 ± 0.00056	0.0199 ± 0.0087
O=C(NC(Cc1ccc(OCCCCNc2ncccn2)cc1)C(=O)O)c1cccc(O)c1 (stereo not shown) [6cb]	–	–	1.85 ± 0.241	> 10
O=C(N[C@@H](Cc1ccc(OCCCCNC2=NCCCN2)cc1)C(=O)O)c1cccc(O)c1 [6cc]	0.0904 ± 0.0313	0.107 ± 0.032	–	–
O=C(N[C@@H](Cc1ccc(OCCCCNC2=NCCN2)cc1)C(=O)O)OCc1ccccc1 [6da]	0.0012 ± 0.00011	0.901 ± 0.223	–	–
O=C(N[C@@H](Cc1ccc(OCCCCNC2=NCCCN2)cc1)C(=O)O)OCc1ccccc1 [6dc]	0.00057 ± 3e-05	0.745 ± 0.117	–	–
O=C(NC(Cc1ccc(OCCCCCNc2ncccn2)cc1)C(=O)O)c1ccccc1 (stereo not shown) [7ab]	–	–	8.77	> 10
O=C(NC(Cc1ccc(OCCCCCNC2=NCCN2)cc1)C(=O)O)c1ccc(O)cc1 (stereo not shown) [7ba]	–	–	0.00201 ± 0.0004	1.65
O=C(NC(Cc1ccc(OCCCCCNc2ncccn2)cc1)C(=O)O)c1cccc(O)c1 (stereo not shown) [7cb]	–	–	2.89	> 10
O=C(N[C@@H](Cc1ccc(OCCCCCNC2=NCCCN2)cc1)C(=O)O)c1cccc(O)c1 [7cc]	–	–	0.0429 ± 0.00947	0.21 ± 0.0448

Now from value to compound, other results behind:

IC50 [1] [µM]	IC50 [2] [µM]	SMILES	IC50 [1, 3] [µM]	IC50 [2, 4] [µM]
0.0385 ± 0.00902	1.69	O=C(N[C@@H](Cc1ccc(OCCCCCNC2=NCCN2)cc1)C(=O)O)c1ccccc1 [7aa]	–	–
0.0588 ± 0.0144	2.77	O=C(N[C@@H](Cc1ccc(OCCCCCNC2=NCCCN2)cc1)C(=O)O)c1ccccc1 [7ac]	–	–
8.84	> 10	O=C(N[C@@H](Cc1ccc(OCCCCCNc2ncccn2)cc1)C(=O)O)c1ccc(O)cc1 [7bb]	–	–
0.0364 ± 0.0143	0.103 ± 0.0544	O=C(N[C@@H](Cc1ccc(OCCCCCNC2=NCCCN2)cc1)C(=O)O)c1ccc(O)cc1 [7bc]	–	–
0.0981 ± 0.0748	6.08	O=C(N[C@@H](Cc1ccc(OCCCCCNC2=NCCN2)cc1)C(=O)O)c1cccc(O)c1 [7ca]	–	–
0.00376 ± 0.00198	7.75	O=C(N[C@@H](Cc1ccc(OCCCCCNC2=NCCN2)cc1)C(=O)O)OCc1ccccc1 [7da]	–	–
2.63	8.36	O=C(N[C@@H](Cc1ccc(OCCCCCNc2ncccn2)cc1)C(=O)O)OCc1ccccc1 [7db]	–	–
0.00293 ± 0.00012	> 10	O=C(N[C@@H](Cc1ccc(OCCCCCNC2=NCCCN2)cc1)C(=O)O)OCc1ccccc1 [7dc]	–	–
0.278 ± 0.0692	0.04 ± 0.0065	[N-]=[N+]=NCCOCCOCCOc1ccc(C(=O)N[C@@H](Cc2ccc(OCCCNC3=NCCN3)cc2)C(=O)O)cc1 [10a]	–	–
0.129 ± 0.00235	0.404 ± 0.282	[N-]=[N+]=NCCOCCOCCOc1ccc(C(=O)N[C@@H](Cc2ccc(OCCCCNC3=NCCN3)cc2)C(=O)O)cc1 [10b]	–	–
0.021 ± 0.00584	0.136 ± 0.0274	[N-]=[N+]=NCCOCCOCCOc1ccc(C(=O)N[C@@H](Cc2ccc(OCCCCCNC3=NCCN3)cc2)C(=O)O)cc1 [10c]	–	–
